In patent publication US20240109868A1, “EP300/CBP MODULATOR, PREPARATION METHOD THEREFOR AND USE THEREOF” (Miracure Biotechnology Limited, priority 2022, published 2024):

Columns and labels:
22Rv1 Cell = assay: 22RV1 cell growth inhibition, CellTiter-Glo, 72 h; type: cell-based; details: Homo sapiens, 22Rv1, 72 h, 22RV1 cells, 72 h culture
Procedure, shortened: (§1)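 Cells seeded at 5×10^3/well overnight in RPMI-1640/10% FBS, then exposed to compound (0.5% DMSO final) for 72 h at 37 °C.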

vCap Cell = assay: vCap cell growth inhibition, CellTiter-Glo, 72 h; type: cell-based; details: Homo sapiens, VCaP, 72 h, vCap cells, 72 h culture
Procedure, shortened: as §1

CBP bromodomain = biological target: T1, CBP bromodomain (Homo sapiens, UniProt Q92793); assay: CBP AlphaLISA assay kit (CBP bromodomain binding to acetylated histone substrate); details: read-out: CBP ALPHA IC50
T1 construct: purchased
T1 sequence (Q92793 1085-1192 limits assumed): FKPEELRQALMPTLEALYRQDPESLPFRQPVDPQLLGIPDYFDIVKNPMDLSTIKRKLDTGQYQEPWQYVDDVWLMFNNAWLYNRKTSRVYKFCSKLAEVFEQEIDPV
Method: The biochemical activity of the CBP inhibitors was determined using the CBP AlphaLISA® assay kit. The assay is based on the binding of the CBP bromodomain to the acetylated histone substrate. The compounds were incubated with CBP and the biotinylated substrate for 30 min. Then acceptor beads were added, followed by 15 min of incubation, and donor beads were added, followed by 15 min of incubation. Then the alpha counts were read, the data were analyzed using Prism 7.0, and the IC50 values were calculated. The values are shown as mean f SEM (N=2).

EP300 = biological target: T2, EP300 (Homo sapiens, UniProt Q09472); assay: Ep300 AlphaLISA assay kit; type: biochemical; details: read-out: EP300 ALPHA IC50
T2 construct: purchased
T2 sequence (Q09472 whole entry): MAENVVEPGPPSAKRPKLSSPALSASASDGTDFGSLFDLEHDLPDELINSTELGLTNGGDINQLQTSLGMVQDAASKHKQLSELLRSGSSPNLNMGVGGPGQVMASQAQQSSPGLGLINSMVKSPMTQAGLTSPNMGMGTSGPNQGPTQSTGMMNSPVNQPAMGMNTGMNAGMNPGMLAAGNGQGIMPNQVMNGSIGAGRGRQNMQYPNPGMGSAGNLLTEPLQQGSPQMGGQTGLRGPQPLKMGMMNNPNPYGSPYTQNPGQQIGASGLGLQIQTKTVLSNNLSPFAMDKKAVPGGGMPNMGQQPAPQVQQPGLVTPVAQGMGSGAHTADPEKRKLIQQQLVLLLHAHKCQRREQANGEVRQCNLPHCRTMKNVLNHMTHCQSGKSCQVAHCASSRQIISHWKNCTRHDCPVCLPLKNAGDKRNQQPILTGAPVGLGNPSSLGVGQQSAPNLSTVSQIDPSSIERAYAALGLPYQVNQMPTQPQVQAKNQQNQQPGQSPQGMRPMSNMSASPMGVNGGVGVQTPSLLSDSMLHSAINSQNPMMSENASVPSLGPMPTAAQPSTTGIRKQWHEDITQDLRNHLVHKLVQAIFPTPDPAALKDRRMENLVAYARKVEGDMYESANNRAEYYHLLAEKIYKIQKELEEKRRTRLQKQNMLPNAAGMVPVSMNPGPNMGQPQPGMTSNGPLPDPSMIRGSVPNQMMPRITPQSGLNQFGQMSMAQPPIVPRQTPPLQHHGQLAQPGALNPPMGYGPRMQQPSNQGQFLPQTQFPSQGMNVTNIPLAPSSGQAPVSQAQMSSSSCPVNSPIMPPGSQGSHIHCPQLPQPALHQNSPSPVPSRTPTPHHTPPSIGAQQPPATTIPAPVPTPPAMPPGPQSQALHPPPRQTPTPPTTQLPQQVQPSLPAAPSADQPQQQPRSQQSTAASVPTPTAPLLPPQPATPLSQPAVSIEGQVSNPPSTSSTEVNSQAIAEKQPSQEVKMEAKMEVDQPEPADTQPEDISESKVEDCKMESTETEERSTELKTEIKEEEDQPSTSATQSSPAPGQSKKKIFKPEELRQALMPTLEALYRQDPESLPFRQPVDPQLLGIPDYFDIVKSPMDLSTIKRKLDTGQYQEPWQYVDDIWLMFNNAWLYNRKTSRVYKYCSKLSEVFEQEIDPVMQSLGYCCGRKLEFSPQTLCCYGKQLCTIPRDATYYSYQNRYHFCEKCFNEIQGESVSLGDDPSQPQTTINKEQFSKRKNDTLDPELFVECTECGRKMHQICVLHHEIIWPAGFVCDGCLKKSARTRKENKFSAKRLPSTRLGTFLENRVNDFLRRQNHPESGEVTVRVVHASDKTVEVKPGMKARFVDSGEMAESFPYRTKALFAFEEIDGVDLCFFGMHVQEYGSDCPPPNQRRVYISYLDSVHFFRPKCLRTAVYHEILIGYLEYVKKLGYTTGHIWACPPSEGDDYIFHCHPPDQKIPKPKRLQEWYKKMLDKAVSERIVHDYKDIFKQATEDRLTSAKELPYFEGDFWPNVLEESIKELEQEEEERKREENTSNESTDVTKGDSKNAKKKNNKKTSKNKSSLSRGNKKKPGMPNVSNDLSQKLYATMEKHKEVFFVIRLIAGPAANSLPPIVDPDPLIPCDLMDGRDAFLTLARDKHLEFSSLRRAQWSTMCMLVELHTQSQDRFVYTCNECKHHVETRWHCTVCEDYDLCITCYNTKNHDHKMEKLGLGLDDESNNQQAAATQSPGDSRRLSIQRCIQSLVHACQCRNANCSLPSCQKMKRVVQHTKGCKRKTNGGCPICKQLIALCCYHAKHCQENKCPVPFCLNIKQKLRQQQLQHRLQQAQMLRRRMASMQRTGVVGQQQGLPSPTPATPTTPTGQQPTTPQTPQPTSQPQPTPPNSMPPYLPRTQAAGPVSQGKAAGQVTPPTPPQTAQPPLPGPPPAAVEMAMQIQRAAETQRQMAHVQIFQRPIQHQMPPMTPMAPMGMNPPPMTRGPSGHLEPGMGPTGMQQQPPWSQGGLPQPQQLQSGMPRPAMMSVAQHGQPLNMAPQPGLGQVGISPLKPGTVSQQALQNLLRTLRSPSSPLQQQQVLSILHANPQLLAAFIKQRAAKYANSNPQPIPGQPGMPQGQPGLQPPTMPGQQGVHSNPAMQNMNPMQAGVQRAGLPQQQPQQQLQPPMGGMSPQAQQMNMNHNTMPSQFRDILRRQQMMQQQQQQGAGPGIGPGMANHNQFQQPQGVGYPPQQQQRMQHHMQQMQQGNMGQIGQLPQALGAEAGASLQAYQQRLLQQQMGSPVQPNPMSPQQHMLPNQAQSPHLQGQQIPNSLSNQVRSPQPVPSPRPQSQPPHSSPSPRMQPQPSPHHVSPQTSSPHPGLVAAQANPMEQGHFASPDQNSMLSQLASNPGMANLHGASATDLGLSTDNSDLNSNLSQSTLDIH
Method: The biochemical activity of the EP300 modulators was determined using the Ep300 AlphaLISA® assay kit. The assay is based on the […] of residues in the peptide substrate by enzymatic transfer of acetyl groups from acetyl-CoA to particular lysine. The compounds were incubated with EP300 and then with an antibody combination of an antibody that specifically binds to an acetylated peptide and acceptor beads that bind to an acetylated peptide, followed by streptavidin-labeled donor beads. The alpha counts were read, the data were analyzed using Prism 7.0, and the IC50 values were calculated. The values are shown as mean f SEM (N=2).

CNC(=O)N1CCc2cc(C3CCN(C(=O)c4ccccc4)CC3)cc(N3CCCc4cc(-c5cnn(C)c5)c(C(F)F)cc43)c2C1 [Compound M001076]
IC50 (22Rv1 Cell): > 1000 nM | IC50 (vCap Cell): < 1000 nM | IC50 (CBP bromodomain): < 10 nM

COCCN1CCC(c2cc3c(c(N4CCCc5cc(-c6cnn(C)c6)c(C(F)F)cc54)c2)CN(C(C)=O)C3)CC1=O (stereo not drawn) [Compound M001191]
IC50 (22Rv1 Cell): < 1000 nM | IC50 (vCap Cell): < 1000 nM | IC50 (CBP bromodomain): < 10 nM

CC(=O)N1Cc2cc(C3CCOCC3)cc(N3CCCc4cc(-c5cnn(C)c5)c(C(F)F)cc43)c2C1 [Compound M001067]
IC50 (22Rv1 Cell): > 1000 nM | IC50 (vCap Cell): < 1000 nM | IC50 (EP300): < 10 nM | IC50 (CBP bromodomain): < 10 nM

CC(=O)N1Cc2cc(C3CCC(=O)NC3)cc(N3CCCc4cc(-c5cnn(C)c5)c(C(F)F)cc43)c2C1 (stereo not drawn) [Compound M001174]
IC50 (22Rv1 Cell): > 1000 nM | IC50 (vCap Cell): < 1000 nM | IC50 (CBP bromodomain): < 10 nM

COC1CCC(c2cc3c(c(N4CCCc5cc(-c6cnn(C)c6)c(C(F)F)cc54)c2)CN(C(C)=O)C3)CC1 (stereo not drawn) [Compound M001065]
IC50 (22Rv1 Cell): < 1000 nM | IC50 (vCap Cell): < 1000 nM | IC50 (CBP bromodomain): < 10 nM

CC(=O)N1Cc2cc(C3CCC(=O)N(C)C3)cc(N3CCCc4cc(-c5cnn(C)c5)c(C(F)F)cc43)c2C1 (stereo not drawn) [Compound M001173]
IC50 (22Rv1 Cell): < 1000 nM | IC50 (vCap Cell): < 1000 nM | IC50 (CBP bromodomain): < 10 nM

CCN1CCC(c2cc3c(c(N4CCCc5cc(-c6cnn(C)c6)c(C(F)F)cc54)c2)CN(C(=O)OC)CCC3)CC1=O (stereo not drawn) [Compound M001260, methyl 9-(7-(difluoromethyl)-6-(1-methyl-1H-pyrazol-4-yl)-3,4-dihydroquinolin-1(2H)-yl)-7-(1-ethyl-2-oxopiperidin-4-yl)-1,3,4,5-tetrahydro-2H-benzo[c]azepine-2-carboxylate]
IC50 (22Rv1 Cell): > 1000 nM | IC50 (vCap Cell): > 1000 nM

CC(=O)N1Cc2cc(-c3ccn(C)c(=O)c3)cc(N3CCCc4cc(-c5cnn(C)c5)c(C(F)F)cc43)c2C1 [Compound M001128]
IC50 (22Rv1 Cell): > 1000 nM | IC50 (vCap Cell): > 1000 nM

CNC(=O)N1CCc2cc(C3CCN(S(=O)(=O)C4CC4)CC3)cc(N3CCCc4cc(-c5cnn(C)c5)c(C(F)F)cc43)c2C1 [Compound M001307]
IC50 (22Rv1 Cell): < 1000 nM | IC50 (vCap Cell): < 1000 nM

CNC(=O)N1CCc2cc(C3CCN(C(=O)C4CC4)CC3)cc(N3CCCc4cc(-c5cnn(C)c5)c(C(F)F)cc43)c2C1 [Compound M001069]
IC50 (22Rv1 Cell): < 1000 nM | IC50 (vCap Cell): > 1000 nM

Cn1cc(-c2cc3c(cc2C(F)F)N(c2cccc4c2CN(C(N)=O)CCC4)CCC3)cn1 [Compound M001213]
IC50 (22Rv1 Cell): > 1000 nM | IC50 (vCap Cell): > 1000 nM

CC(=O)N1Cc2cc(C3CCNC(=O)C3)cc(N3CCCc4cc(-c5cnn(C)c5)c(C(F)F)cc43)c2C1 (stereo not drawn) [Compound M001126]
IC50 (22Rv1 Cell): < 1000 nM | IC50 (vCap Cell): < 1000 nM | IC50 (CBP bromodomain): > 10 nM

CC(=O)N1Cc2cc(C3CCNCC3)cc(N3CCCc4cc(-c5cnn(C)c5)c(C(F)F)cc43)c2C1 [Compound M001040]
IC50 (22Rv1 Cell): > 1000 nM | IC50 (vCap Cell): > 1000 nM

CC(=O)N1Cc2cc(C3CCC([S+](C)[O-])CC3)cc(N3CCCc4cc(-c5cnn(C)c5)c(C(F)F)cc43)c2C1 (stereo not drawn) [Compound M001323]
IC50 (22Rv1 Cell): > 1000 nM | IC50 (vCap Cell): < 1000 nM

CC(=O)N1Cc2cc(-c3cc[nH]c(=O)c3)cc(N3CCCc4cc(-c5cnn(C)c5)c(C(F)F)cc43)c2C1 [Compound M001156]
IC50 (22Rv1 Cell): > 1000 nM | IC50 (vCap Cell): > 1000 nM

CC(=O)N1Cc2cc(N3CCOCC3)cc(N3CCCc4cc(-c5cnn(C)c5)c(C(F)F)cc43)c2C1 [Compound M001001]
IC50 (22Rv1 Cell): > 1000 nM | IC50 (vCap Cell): > 1000 nM

CC(=O)N1CCc2cc(C3CCNC(=O)C3)cc(N3CCCc4cc(-c5cnn(C)c5)c(C(F)F)cc43)c2C1 (stereo not drawn) [Compound M001142]
IC50 (22Rv1 Cell): > 1000 nM | IC50 (vCap Cell): > 1000 nM

CC(=O)N1Cc2cc(C3CCN(CC(C)O)C(=O)C3)cc(N3CCCc4cc(-c5cnn(C)c5)c(C(F)F)cc43)c2C1 (stereo not drawn) [Compound M001190]
IC50 (22Rv1 Cell): < 1000 nM | IC50 (vCap Cell): < 1000 nM | IC50 (CBP bromodomain): < 10 nM

CNC(=O)N1CCc2cc(N3CCOCC3)cc(N3CCCc4cc(-c5cnn(C)c5)c(C(F)F)cc43)c2C1 [Compound M001014, 8-(7-(difluoromethyl)-6-(1-methyl-1H-pyrazol-4-yl)-3,4-dihydroquinolin-1(2H)-yl)-N-methyl-6-morpholine-3,4-dihydroisoquinoline-2(1H)-carboxamide]
IC50 (22Rv1 Cell): > 1000 nM | IC50 (vCap Cell): > 1000 nM

CNC(=O)N1CCc2cc(C3CCC(=O)N(CCOC)C3)cc(N3CCCc4cc(-c5cnn(C)c5)c(C(F)F)cc43)c2C1 (stereo not drawn) [Compound M001222]
IC50 (22Rv1 Cell): < 1000 nM | IC50 (vCap Cell): < 1000 nM

CCN1CC(c2cc3c(c(N4CCCc5cc(-c6cnn(C)c6)c(C(F)F)cc54)c2)CN(C(=O)NC)CC3)CCC1=O (stereo not drawn) [Compound M001221]
IC50 (22Rv1 Cell): < 1000 nM | IC50 (vCap Cell): < 1000 nM
